The values that follow come from ChEMBL document CHEMBL4477259, “Discovery and structure-activity relationships of a novel isothiazolone class of bacterial type II topoisomerase inhibitors” (Bioorg Med Chem Lett, 2016).

Format in all cases: functional
For experiment [1], the system named is Escherichia coli. Put plainly: Antibacterial activity against Escherichia coli W4573.
In experiment [2] the test system is Staphylococcus aureus. Put plainly: Antibacterial activity against Staphylococcus aureus ATCC 29213.
The subject of experiment [3] is Klebsiella pneumoniae. Put plainly: Antibacterial activity against Klebsiella pneumoniae ATCC 700603.
For experiment [4], the system named is Pseudomonas aeruginosa. Put plainly: Antibacterial activity against Pseudomonas aeruginosa ATCC 27853.
Experiment [5] concerns Escherichia coli. Put plainly: Antibacterial activity against Escherichia coli N43.
For experiment [6], the system named is Acinetobacter baumannii. Put plainly: Antibacterial activity against Acinetobacter baumannii NCTC 13420.

Converted amounts (≈) assume the structure as drawn.

Usually MIC stands for the lowest concentration found to suppress growth. A low value points to greater potency. As for `CCc1c(-c2ccc(N3CC[C@H](N(C)C)C3)cc2)[nH]c(=O)c2c(=O)[nH]sc12`, the MIC in experiment [1] was 0.015 µg/mL (≈ 0.039 µM); in experiment [2] it was 0.5 µg/mL (≈ 1.3 µM); in experiment [3], 4 µg/mL (≈ 10.4 µM); in experiment [4] it was 1 µg/mL (≈ 2.6 µM); in experiment [5], 0.001 µg/mL (≈ 0.0026 µM); in experiment [6], 1 µg/mL (≈ 2.6 µM).

On to `CCc1c(-c2ccc(Cl)cc2)[nH]c(=O)c2c(=O)[nH]sc12`, for which the minimum inhibitory concentration (MIC) in experiment [1] was 16 µg/mL (≈ 52.2 µM); in experiment [2], 8 µg/mL (≈ 26.1 µM); in experiment [3], 128 µg/mL (≈ 417 µM); in experiment [4] it was greater than 128 µg/mL; in experiment [5], 0.25 µg/mL (≈ 0.815 µM); in experiment [6], 16 µg/mL (≈ 52.2 µM).

Take `CCc1c(-c2ccc(N3CCC(N)C3)cc2)[nH]c(=O)c2c(=O)[nH]sc12` (stereo unspecified): the MIC in experiment [1] is 0.002 µg/mL (≈ 0.00561 µM); in experiment [2], 0.12 µg/mL (≈ 0.337 µM); in experiment [3] it was 4 µg/mL (≈ 11.2 µM); in experiment [4], 0.06 µg/mL (≈ 0.168 µM); in experiment [5], no more than 0.0001 µg/mL; in experiment [6] it was 64 µg/mL (≈ 180 µM).

With `CCc1c(-c2cccc(N3CCC(NC)C3)c2)[nH]c(=O)c2c(=O)[nH]sc12` (stereo unspecified), the MIC is 32 µg/mL (≈ 86.4 µM) in experiment [2], greater than 128 µg/mL in experiment [3], greater than 128 µg/mL in experiment [4] and greater than 128 µg/mL in experiment [6].

Regarding `CCc1c(-c2ccc(N3CCC(F)(F)C3)cc2)[nH]c(=O)c2c(=O)[nH]sc12`, the MIC in experiment [1] was 0.5 µg/mL (≈ 1.32 µM); in experiment [2], 0.12 µg/mL (≈ 0.318 µM); in experiment [3], greater than 64 µg/mL; in experiment [4] it was 4 µg/mL (≈ 10.6 µM); in experiment [5], 0.12 µg/mL (≈ 0.318 µM); in experiment [6], greater than 64 µg/mL.

For the compound `CCc1c(-c2ccc(N3CCC(N(C)C)CC3)cc2)[nH]c(=O)c2c(=O)[nH]sc12`, the MIC in experiment [1] is 16 µg/mL (≈ 40.1 µM); in experiment [2], 16 µg/mL (≈ 40.1 µM); in experiment [3] it was greater than 64 µg/mL; in experiment [4], 64 µg/mL (≈ 161 µM); in experiment [5], 0.5 µg/mL (≈ 1.25 µM); in experiment [6], greater than 64 µg/mL.

Turning to `CCc1c(-c2ccc(N3CCC(NC)CC3)cc2)[nH]c(=O)c2c(=O)[nH]sc12`, the MIC in experiment [1] is 32 µg/mL (≈ 83.2 µM); in experiment [2] it was 16 µg/mL (≈ 41.6 µM); in experiment [3], greater than 64 µg/mL; in experiment [4], 64 µg/mL (≈ 166 µM); in experiment [5] it was 1 µg/mL (≈ 2.6 µM); in experiment [6], greater than 64 µg/mL.

On to `CCc1c(-c2ccc(N3CCC(CNC)C3)cc2)[nH]c(=O)c2c(=O)[nH]sc12` (stereo unspecified), for which the MIC in experiment [1] is 1 µg/mL (≈ 2.6 µM); in experiment [2], 2 µg/mL (≈ 5.2 µM); in experiment [3] it was 32 µg/mL (≈ 83.2 µM); in experiment [4], 2 µg/mL (≈ 5.2 µM); in experiment [5] it was 0.008 µg/mL (≈ 0.0208 µM); in experiment [6], greater than 128 µg/mL.

For the compound `CCc1c(-c2ccc(N3C[C@@H]4CCCN[C@@H]4C3)cc2)[nH]c(=O)c2c(=O)[nH]sc12`, the MIC was determined as 0.5 µg/mL (≈ 1.26 µM) in experiment [1]; 1 µg/mL (≈ 2.52 µM) in experiment [2]; 4 µg/mL (≈ 10.1 µM) in experiment [3]; 1 µg/mL (≈ 2.52 µM) in experiment [4]; 0.008 µg/mL (≈ 0.0202 µM) in experiment [5]; 8 µg/mL (≈ 20.2 µM) in experiment [6].

Regarding `CCc1c(-c2ccc(N3CCNCC3)cc2)[nH]c(=O)c2c(=O)[nH]sc12`, the MIC in experiment [1] is 4 µg/mL (≈ 11.2 µM); in experiment [2] it was 8 µg/mL (≈ 22.4 µM); in experiment [3] it was 64 µg/mL (≈ 180 µM); in experiment [4], 16 µg/mL (≈ 44.9 µM); in experiment [5], 0.5 µg/mL (≈ 1.4 µM); in experiment [6], greater than 64 µg/mL.

With `CCc1c(-c2ccc(N3C[C@@H]4CCN(C)[C@@H]4C3)cc2)[nH]c(=O)c2c(=O)[nH]sc12`, the MIC in experiment [1] was 0.5 µg/mL (≈ 1.26 µM); in experiment [2], 4 µg/mL (≈ 10.1 µM); in experiment [3] it was 8 µg/mL (≈ 20.2 µM); in experiment [4], 8 µg/mL (≈ 20.2 µM); in experiment [5], 0.06 µg/mL (≈ 0.151 µM); in experiment [6], 8 µg/mL (≈ 20.2 µM).

On to `CCc1c(-c2ccc(N3CC[C@@H](N(C)C)C3)cc2)[nH]c(=O)c2c(=O)[nH]sc12`, for which the MIC in experiment [1] is 0.5 µg/mL (≈ 1.3 µM); in experiment [2] it was 2 µg/mL (≈ 5.2 µM); in experiment [3], 8 µg/mL (≈ 20.8 µM); in experiment [4], 1 µg/mL (≈ 2.6 µM); in experiment [5] it was 0.03 µg/mL (≈ 0.078 µM); in experiment [6] it was 4 µg/mL (≈ 10.4 µM).

`CCc1c(-c2ccc(N3CC[C@@H](O)C3)cc2)[nH]c(=O)c2c(=O)[nH]sc12`: the MIC in experiment [1] was 0.12 µg/mL (≈ 0.336 µM); in experiment [2] it was 0.015 µg/mL (≈ 0.042 µM); in experiment [3], 2 µg/mL (≈ 5.6 µM); in experiment [4] it was 1 µg/mL (≈ 2.8 µM); in experiment [5], 0.008 µg/mL (≈ 0.0224 µM); in experiment [6], 16 µg/mL (≈ 44.8 µM).
